Data from paper PMC10535219, “Discovery and Potential Utility of a Novel Non-Invasive Ocular Delivery Platform” (Pharmaceutics, 2023).
Where two headings read alike, the source gives them in different places.

What was measured:
[1] = Biodisposition of JV-DE1 eye drops in New Zealand rabbits (LC-MS/MS of plasma and ocular tissues); format: in vivo; conditions: rabbit; for Cmax / concentration at 0.5 h / concentration at 3 h / concentration at 6 h / concentration at 24 h: New Zealand; for Cmax: topical or ocular
Method: The in-life procedures and sample collections were performed at Joinn Laboratory Inc. (Suzhou, China). A single dose of 50 µL (120 µg) per eye of the 0.24% JV-DE1 eye drops was applied to both eyes of the animals at time 0 using a pipet. This dose was chosen based on the maximum amount deliverable as an eye drop. Blood samples were collected from all five study animals at 0 h pre-dosing. […] Plasma samples were collected before each euthanization.
Sample preparation and bioanalysis were performed at Medicilon Preclinical Research LLC (Shanghai, China). Solid ocular tissues were homogenized with 9- to 49-fold (1 g tissue in 9 mL to 49 mL, w/v) of cold homogenization buffer (50% methanol/H2O). Aliquots of plasma or aqueous humor, as well as the homogenized tissue samples, were mixed with 8-fold volumes of 200 ng/mL warfarin in a methanol solution. After vortexing and centrifuging, an aliquot of supernatants was transferred to a 96-well plate for LC-MS/MS analysis. JV-DE1 is a synthesized new chemical entity (NCE). The absence of the endogenous compound was verified by JeniVision with a battery of pre-clinical GLP and non-GLP studies, including analytical studies in monkey, dog, and rabbit tissues.
The liquid chromatography (LC) system comprised a Waters (Waters Corporation, Milford, CT, USA) Ultra Performance Liquid Chromatography (UPLC) equipped with an ACQUITY UPLC binary solvent manager, an ACQUITY UPLC sample manager, an ACQUTIY UPLC sample organizer, and an ACQUITY UPLC column heater HT. The mass spectrometric (MS) analysis was performed using a Triple Quad 6500+ (Applied Biosystems/MDS Sciex, Concord, ON, Canada) with an ESI ion source. The data acquisition and control system were created using Analyst 1.6.3 and 1.7.1 Software from Applied Biosystems/MDS Sciex. The LC/MS conditions for JV-DE1 are described in Supplementary Table S1a–c.

[2] = tested on: COX-2; parameters: method as in PMID 22765297, PMID 24005906; conditions: COX-2 signaling cascade; cited from earlier work
[3] = single eye drop 120 μg/eye OD, 0.5 h
[4] = single eye drop 120 μg/eye OD, 3 h
[5] = single eye drop 120 μg/eye OD, 6 h
[6] = single eye drop 120 μg/eye OD, 24 h

SMILES: CC(C)Oc1ccc(Cc2ccc(NC3=NCCN3)cc2)cc1 [JV-DE1, 4,5-dihydro-N-[4-[[4-(1-methylethoxy)phenyl]methyl]phenyl]-1H-imadazol-2-amine]
- Cmax ([1]; anterior sclera, 120 ug, eye drop 120 µg/eye, read-out: Cmax in anterior sclera): 1790 ng/g
- concentration at 0.5 h ([1]; anterior sclera, topical, 120 µg/eye, single eye drop 120 μg/eye OD, 0.5 h, read-out: Drug in OD Tissues, Anterior sclera): 1790 ng/g
- concentration at 3 h ([1]; anterior sclera, topical, 120 µg/eye, single eye drop 120 μg/eye OD, 3 h, read-out: Drug in OD Tissues, Anterior sclera): 926 ng/g
- concentration at 6 h ([1]; anterior sclera, topical, 120 µg/eye, single eye drop 120 μg/eye OD, 6 h, read-out: Drug in OD Tissues, Anterior sclera): 1480 ng/g
- concentration at 24 h ([1]; anterior sclera, topical, 120 µg/eye, single eye drop 120 μg/eye OD, 24 h, read-out: Drug in OD Tissues, Anterior sclera): 93.2 ng/g
- Cmax ([1]; bulbar conjunctiva, 120 ug, eye drop 120 µg/eye, read-out: Cmax in bulbar conjunctiva): ~16000 ng/g
- Cmax ([1]; ciliary body/iris, 120 ug, eye drop 120 µg/eye, read-out: Cmax in ciliary body/iris): 305 ng/g
- concentration at 0.5 h ([1]; ciliary body/iris, topical, 120 µg/eye, single eye drop 120 μg/eye OD, 0.5 h, read-out: Drug in OD Tissues, Ciliary body/iris): 105 ng/g
- concentration at 3 h ([1]; ciliary body/iris, topical, 120 µg/eye, single eye drop 120 μg/eye OD, 3 h, read-out: Drug in OD Tissues, Ciliary body/iris): 305 ng/g
- concentration at 6 h ([1]; ciliary body/iris, topical, 120 µg/eye, single eye drop 120 μg/eye OD, 6 h, read-out: Drug in OD Tissues, Ciliary body/iris): 231 ng/g
- concentration at 24 h ([1]; ciliary body/iris, topical, 120 µg/eye, single eye drop 120 μg/eye OD, 24 h, read-out: Drug in OD Tissues, Ciliary body/iris): 28.9 ng/g
- concentration at 0.5 h ([1]; conjunctiva, other: eye drop applied to the eye, single eye drop 120 μg/eye OD, 0.5 h, read-out: Drug in OD Tissues, Conjunctiva): 16500 ng/g
- concentration at 3 h ([1]; conjunctiva, other: eye drop applied to the eye, single eye drop 120 μg/eye OD, 3 h, read-out: Drug in OD Tissues, Conjunctiva): 5180 ng/g
- concentration at 6 h ([1]; conjunctiva, other: eye drop applied to the eye, single eye drop 120 μg/eye OD, 6 h, read-out: Drug in OD Tissues, Conjunctiva): 566 ng/g
- concentration at 24 h ([1]; conjunctiva, other: eye drop applied to the eye, single eye drop 120 μg/eye OD, 24 h, read-out: Drug in OD Tissues, Conjunctiva): 994 ng/g
- Cmax ([1]; cornea, 120 ug, eye drop 120 µg/eye, read-out: Cmax in cornea): ~12000 ng/g
- concentration at 0.5 h ([1]; cornea, topical, 120 µg/eye, single eye drop 120 μg/eye OD, 0.5 h, read-out: Drug in OD Tissues, Cornea): 12100 ng/g
- concentration at 3 h ([1]; cornea, topical, 120 µg/eye, single eye drop 120 μg/eye OD, 3 h, read-out: Drug in OD Tissues, Cornea): 5950 ng/g
- concentration at 6 h ([1]; cornea, topical, 120 µg/eye, single eye drop 120 μg/eye OD, 6 h, read-out: Drug in OD Tissues, Cornea): 5130 ng/g
- concentration at 24 h ([1]; cornea, topical, 120 µg/eye, single eye drop 120 μg/eye OD, 24 h, read-out: Drug in OD Tissues, Cornea): 542 ng/g
- concentration at 0.5 h ([1]; plasma, other: eye drop applied to the eye, single eye drop 120 μg/eye OD, 0.5 h, read-out: Drug in plasma): 1 ng/mL
- concentration at 3 h ([1]; plasma, other: eye drop applied to the eye, single eye drop 120 μg/eye OD, 3 h, read-out: Drug in plasma): 0.3 ng/mL
- concentration at 6 h ([1]; plasma, other: eye drop applied to the eye, single eye drop 120 μg/eye OD, 6 h, read-out: Drug in plasma): 0.1 ng/mL
- Cmax ([1]; posterior sclera, 120 ug, eye drop 120 µg/eye, read-out: Cmax in posterior sclera): 240 ng/g
- concentration at 0.5 h ([1]; posterior sclera, topical, 120 µg/eye, single eye drop 120 μg/eye OD, 0.5 h, read-out: Drug in OD Tissues, Posterior sclera): 209 ng/g
- concentration at 3 h ([1]; posterior sclera, topical, 120 µg/eye, single eye drop 120 μg/eye OD, 3 h, read-out: Drug in OD Tissues, Posterior sclera): 240 ng/g
- concentration at 6 h ([1]; posterior sclera, topical, 120 µg/eye, single eye drop 120 μg/eye OD, 6 h, read-out: Drug in OD Tissues, Posterior sclera): 151 ng/g
- concentration at 24 h ([1]; posterior sclera, topical, 120 µg/eye, single eye drop 120 μg/eye OD, 24 h, read-out: Drug in OD Tissues, Posterior sclera): 64.5 ng/g
- Cmax ([1]; retina, 120 µg per eye, eye drop administration, read-out: retinal Cmax): 297 nM
- Cmax ([1]; retina, 120 ug, eye drop 120 µg/eye, read-out: Cmax in retina): 92 ng/g
- concentration at 0.5 h ([1]; retina, topical, 120 µg/eye, single eye drop 120 μg/eye OD, 0.5 h, read-out: Drug in OD Tissues, Retina): 92 ng/g
- concentration at 3 h ([1]; retina, topical, 120 µg/eye, single eye drop 120 μg/eye OD, 3 h, read-out: Drug in OD Tissues, Retina): 49.1 ng/g
- concentration at 6 h ([1]; retina, topical, 120 µg/eye, single eye drop 120 μg/eye OD, 6 h, read-out: Drug in OD Tissues, Retina): 58.9 ng/g
- concentration at 24 h ([1]; retina, topical, 120 µg/eye, single eye drop 120 μg/eye OD, 24 h, read-out: Drug in OD Tissues, Retina): 6.8 ng/g
- Cmax ([1]; vitreous humor, 120 ug, eye drop 120 µg/eye, read-out: Cmax in vitreous humor): 2.6 ng/mL
- concentration at 0.5 h ([1]; vitreous humor, topical, 120 µg/eye, single eye drop 120 μg/eye OD, 0.5 h, read-out: Drug in vitreous humor): 2.6 ng/mL
- concentration at 3 h ([1]; vitreous humor, topical, 120 µg/eye, single eye drop 120 μg/eye OD, 3 h, read-out: Drug in vitreous humor): 1.7 ng/mL
- concentration at 6 h ([1]; vitreous humor, topical, 120 µg/eye, single eye drop 120 μg/eye OD, 6 h, read-out: Drug in vitreous humor): 1.2 ng/mL
- concentration at 24 h ([1]; vitreous humor, topical, 120 µg/eye, single eye drop 120 μg/eye OD, 24 h, read-out: Drug in vitreous humor): 0.4 ng/mL
- maximum ocular delivery efficiency (% administered dose), anterior sclera ([1]; eye drop 120 µg/eye): 0.2982%
- maximum ocular delivery efficiency (% administered dose), ciliary body/iris ([1]; eye drop 120 µg/eye): 0.0174%
- maximum ocular delivery efficiency (% administered dose), conjunctiva ([1]; eye drop 120 µg/eye): 1.3929%
- maximum ocular delivery efficiency (% administered dose), cornea ([1]; eye drop 120 µg/eye): 0.8622%
- maximum ocular delivery efficiency (% administered dose), retina ([1]; eye drop 120 µg/eye): 0.0047%
- maximum ocular delivery efficiency (% administered dose), vitreous humor ([1]; eye drop 120 µg/eye): 0.0023%
- drug concentration in the plasma ([1]; eye drop 120 µg/eye, throughout 0.5, 3 and 6 h post-dose): no more than 0.001 µg/mL
- % Administered Dose, Anterior sclera [1, 3]: 0.2982%
- % Administered Dose, Ciliary body/iris [1, 3]: 0.0084%
- % Administered Dose, Conjunctiva [1, 3]: 1.3929%
- % Administered Dose, Cornea [1, 3]: 0.8622%
- % Administered Dose, Posterior sclera [1, 3]: 0.0153%
- % Administered Dose, Retina [1, 3]: 0.0047%
- % Administered Dose, Vitreous humor [1, 3]: 0.0023%
- % Administered Dose, Anterior sclera [1, 4]: 0.1068%
- % Administered Dose, Ciliary body/iris [1, 4]: 0.0174%
- % Administered Dose, Conjunctiva [1, 4]: 0.4477%
- % Administered Dose, Cornea [1, 4]: 0.4239%
- % Administered Dose, Posterior sclera [1, 4]: 0.0323%
- % Administered Dose, Retina [1, 4]: 0.0036%
- % Administered Dose, Vitreous humor [1, 4]: 0.0012%
- % Administered Dose, Anterior sclera [1, 5]: 0.2139%
- % Administered Dose, Ciliary body/iris [1, 5]: 0.0137%
- % Administered Dose, Conjunctiva [1, 5]: 0.1288%
- % Administered Dose, Cornea [1, 5]: 0.3709%
- % Administered Dose, Posterior sclera [1, 5]: 0.0197%
- % Administered Dose, Retina [1, 5]: 0.0037%
- % Administered Dose, Vitreous humor [1, 5]: 0.0007%
- % Administered Dose, Anterior sclera [1, 6]: 0.0127%
- % Administered Dose, Ciliary body/iris [1, 6]: 0.0021%
- % Administered Dose, Conjunctiva [1, 6]: 0.1467%
- % Administered Dose, Cornea [1, 6]: 0.0254%
- % Administered Dose, Posterior sclera [1, 6]: 0.0088%
- % Administered Dose, Retina [1, 6]: 0.0004%
- % Administered Dose, Vitreous humor [1, 6]: 0.0004%
- Drug in plasma ([1]; single eye drop 120 μg/eye OD, 24 h, LLOQ 0.0001 µg/mL): BLQ

SMILES: CC/C=C\C/C=C\C/C=C\C/C=C\C/C=C\C/C=C\CCC(=O)O [JV-MD2, cis-4,7,10,13,16,19-docosahexaenoic acid]
- IC50 [2]: 18 µM
